Source: PMC8159111 (Pathogens, 2021)

Experiments:
Type in all cases: cell-based
[1] = Cytotoxicity (CC50) determination, crystal violet assay; details: African green monkey, Vero E6 cells, Table 4 prints no unit, Figure 4 prints μM, read-out: CC50 (half-maximal cytotoxic concentration)
Experimental: To assess the half maximal cytotoxic concentration (CC50), stock solutions of the test compounds were prepared in 10% DMSO in ddH2O and diluted further to the working solutions with DMEM. The cytotoxic activity of the extracts was tested in VERO-E6 cells by using crystal violet assay as previously described with minor modifications. Briefly, the cells were seeded in 96-well plates (100 µL/well at a density of 3 × 10^5 cells/mL) and incubated for 24 h at 37 °C in a humidified 5% CO2 incubator. After 24 h, cells were treated with various concentrations of the tested compounds in triplicates. Seventy two hours later, the supernatant was discarded, and cell monolayers were fixed with 10% formaldehyde for 1 h at room temperature (RT). The fixed monolayers were then dried and stained with 50 µL of 0.1% crystal violet for 20 min on a bench rocker at RT. The monolayers were then washed, dried and the crystal violet dye in each well was then dissolved with 200 µL of methanol for 20 min on a bench rocker at RT. The absorbance of crystal violet solutions was measured at λmax 570 nm as a reference wavelength using a multi-well plate reader.

[2] = test system: SARS-CoV-2 "NRC-03-nhCoV" virus; test: Inhibitory concentration 50 (IC50) determination, reduction of virus-induced cytopathic effect in Vero-E6 cells; details: Severe acute respiratory syndrome coronavirus 2, Vero C1008, 72 h, against NRC-03-nhCoV in Vero E6, 72 h, CPE reduction, crystal violet; unit not given in Table 4 and Figure 6, Figure 4 and text print μM; read-out: IC50 (half-maximal inhibitory concentration)
Experimental: The IC50 values for the tested compounds were determined as previously described, with minor modifications. Briefly, in 96-well tissue culture plates, 2.4 × 10^4 Vero-E6 cells were distributed in each well and incubated overnight at a humidified 37°C incubator under 5% CO2 condition. The cell monolayers were then washed once with 1× PBS. An aliquot of the SARS-CoV-2 “NRC-03-nhCoV” virus containing 100 TCID50 was incubated with serial diluted compounds and kept at 37 °C for 1 h. The Vero-E6 cells were treated with virus/compound mix and co-incubated at 37 °C in a total volume of 200 µL per well. Untreated cells infected with virus represented the virus control; however, cells that were not treated and not infected were the cell control. Following incubation at 37 °C in 5% CO2 incubator for 72 h, the cells were fixed with 100 μL of 10% paraformaldehyde for 20 min and stained with 0.5% crystal violet in distilled water for 15 min at RT. The crystal violet dye was then dissolved using 100 μL of absolute methanol per well and the optical density of the color was measured at 570 nm using the Anthos Zenyth 200 rt plate reader (Anthos Labtec Instruments, Heerhugowaard, the Netherlands).

[3] = test system: MERS-CoV virus "NRCE-HKU270"; test: microbe, parasite or virus in culture; details: Middle East respiratory syndrome-related coronavirus, Vero C1008, read-out: IC50 (half-maximal inhibitory concentration)
[4] = test system: NRC-03-nhCoV (SARS-CoV-2) in Vero-E6 cells; test: Mode of antiviral action, plaque infectivity reduction assay (adsorption, replication, virucidal)
Experimental: To investigate whether the tested compound with high selectivity index and antiviral activity against NRC-03-nhCoV affect (a) viral adsorption, (b) viral replication or (c) viricidal effect, a plaque infectivity reduction assay was performed according to the following protocols: • (a) Viral adsorption mechanism
The viral adsorption mechanism was assayed according to a protocol by Zhang et al. with minor modifications. Vero-E6 cells were cultivated in a 6-well plate (10^5 cells/mL) for 24 h at 37 °C. Each tested drug was applied in 500 µL of medium without supplements and co-incubated with the cells for 2 h at 4 °C. The non-absorbed drug in the applied inocula was removed by washing cells three times with 1x PBS. The NRC-03-nhCoV was diluted to a countable range “10^−4” and co-incubated with the pretreated cells. About 1 h post-incubation, the inocula were removed and 3 mL of agarose overlay (1:1 mixture of warmed 2× plaque media and a stock solution of heated 2% agarose) were added. The plates were kept at room temperature to solidify and then incubated at 37 °C to allow the formation of viral plaques. The plaques were fixed using 10% formaldehyde, stained using crystal violet (1% crystal violet in 20% ethanol and distilled H2O), washed with rinse water and dried to calculate the percentage reduction in plaque formation compared to control wells, which comprised untreated Vero-E6 cells directly infected with NRC-03-nhCoV.
The impact of the tested drug on viral replication was determined as previously described. Vero-E6 cells were cultivated in a 6-well plate (10^5 cell/mL) for 24 h at 37 °C. The NRC-03-nhCoV of the countable range was inoculated directly to the cells and incubated for 1 h at 37 °C. The inocula containing the non-adsorbed virus were removed by washing infected cell monolayers three times with 1× PBS. The analyzed compound was then applied in varying concentrations to infected cells for another 1 h contact time at 37 °C. After removing the inocula containing the tested drug, agarose overlay were added to the cells. […]

## CC1(C)CCC2(C(=O)OCc3cc(-c4ccc(Cl)cc4)no3)CCC3(C)C(=CCC4C5(C)CC(O)C(O)C(C)(C)C5CCC43C)C2C1 (stereo not drawn) [Compound 17, (3-(4-chlorophenyl)isoxazol-5-yl) methyl-(2α,3β)-2,3-dihydroxyolean-12-en-28-oate]
[1]
  CC50 at 72 h: 142 µM
[2]
  IC50: 4.12 µM
[3]
  IC50: 6.25 µM
[4]; Vero-E6 cells pretreated with compound 2 h at 4 °C
  effect on viral adsorption: efficiently impair viral replication and adsorption
[4]; compound applied to infected Vero-E6 cells after adsorption
  effect on viral replication: efficiently impair viral replication
[4]; virus mixed with compound 1 h before infection of Vero-E6
  virucidal effect: virucidal effect
